Inhibition in vivo, inhibition and Activity data for 38 compounds are collected here from ChEMBL document CHEMBL4000197, “Design, synthesis, biological evaluation, and molecular docking of chalcone derivatives as anti-inflammatory agents” (Bioorg Med Chem Lett, 2017).

The first data set has as its system Mus musculus. The data set is described as follows: Anti-inflammatory activity in para-xylene-induced Kunming mouse ear-swelling model assessed as inhibition of ear swelling at 40 mg/kg, ig measured after 1 hr relative to control. The format is functional. The settings on record: po.
As to `O=C(/C=C/c1ccccc1)c1ccc(N2CCN(c3cccc(C(F)(F)F)c3)CC2)cc1`, the inhibition in vivo (commonly the share of the control response that was lost under treatment) at 40 mg/kg turned out to be 25%. For the compound `O=C(/C=C/c1ccccc1)c1ccc(N2CCN(Cc3ccccc3)CC2)cc1`, the inhibition in vivo at 40 mg/kg is 17.7%.

In the case of `COc1ccc(/C=C/C(=O)c2ccc(N3CCN(S(=O)(=O)c4ccc(Br)cc4)CC3)cc2)cc1OC`, the inhibition in vivo at 40 mg/kg came out at 75.5%. The same measure, in the same setting: as for `COc1ccccc1N1CCN(c2ccc(C(=O)/C=C/c3ccc(Cl)cc3)cc2)CC1`, the figure is 6.13%. The same measure, in the same setting: for `O=C(/C=C/c1ccc(Cl)cc1)c1ccc(N2CCN(S(=O)(=O)c3ccc(C(F)(F)F)cc3)CC2)cc1` the value was 59.6%; for `O=C(/C=C/c1ccccc1)c1ccc(N2CCN(S(=O)(=O)c3ccc(C(F)(F)F)cc3)CC2)cc1`, 47.9%; for `CC(C)c1cc(C(C)C)c(S(=O)(=O)N2CCN(c3ccc(C(=O)/C=C/c4ccccc4)cc3)CC2)c(C(C)C)c1`, 60.1%.

Take `O=C(/C=C/c1ccc(Cl)cc1)c1ccc(N2CCN(S(=O)(=O)c3ccc(Cl)cc3)CC2)cc1`: the inhibition in vivo at 40 mg/kg came out at 56.6%. Same read-out and setting: as for `COc1ccc(S(=O)(=O)N2CCN(c3ccc(C(=O)/C=C/c4ccccc4)cc3)CC2)cc1OC`, the figure is 55.5%; as for `Cc1ccc(N2CCN(c3ccc(C(=O)/C=C/c4ccc(Cl)cc4)cc3)CC2)c(C)c1`, 25.7%; as for `Cc1cc(C)c(S(=O)(=O)N2CCN(c3ccc(C(=O)/C=C/c4ccccc4)cc3)CC2)c(C)c1`, 55.5%. `O=C(/C=C/c1ccccc1)c1ccc(N2CCN(S(=O)(=O)c3ccccc3)CC2)cc1`: the inhibition in vivo at 40 mg/kg came to 30%.

`O=C(/C=C/c1ccccc1)c1ccc(N2CCN(c3cccc(Cl)c3)CC2)cc1`: the inhibition in vivo at 40 mg/kg came to 14.1%. Take `O=C(/C=C/c1ccccc1)c1ccc(N2CCN(S(=O)(=O)c3ccc(OC(F)(F)F)cc3)CC2)cc1`: the inhibition in vivo at 40 mg/kg was found to be 47.4%.

Turning to `COc1ccc(/C=C/C(=O)c2ccc(N3CCN(c4ccc(Cl)c(Cl)c4)CC3)cc2)cc1OC`, the inhibition in vivo at 40 mg/kg was 63.5%.

For the compound `Cc1ccc(N2CCN(c3ccc(C(=O)/C=C/c4ccccc4)cc3)CC2)cc1`, the inhibition in vivo at 40 mg/kg was found to be 2.85%.

With `COc1cccc(N2CCN(c3ccc(C(=O)/C=C/c4ccccc4)cc3)CC2)c1`, the inhibition in vivo at 40 mg/kg worked out at 16%. As to `COc1cccc(N2CCN(c3ccc(C(=O)/C=C/c4ccc(Cl)cc4)cc3)CC2)c1`, the inhibition in vivo at 40 mg/kg came out at 2.28%. Consider `CCCCc1ccc(S(=O)(=O)N2CCN(c3ccc(C(=O)/C=C/c4ccccc4)cc3)CC2)cc1`, for which the inhibition in vivo at 40 mg/kg was determined as 24%.

Take `O=C(/C=C/c1ccccc1)c1ccc(N2CCN(c3ccccc3Cl)CC2)cc1`: the inhibition in vivo at 40 mg/kg was found to be 4.71%. With `O=C(/C=C/c1ccc(Cl)cc1)c1ccc(N2CCN(c3cccc(Cl)c3)CC2)cc1`, the inhibition in vivo at 40 mg/kg came to 5.85%. The same measure, in the same setting: for `O=C(/C=C/c1ccccc1)c1ccc(N2CCN(c3ccccc3)CC2)cc1` the value was 3.71%; for `Cc1ccc(S(=O)(=O)N2CCN(c3ccc(C(=O)/C=C/c4ccccc4)cc3)CC2)cc1`, 30.8%. Take `O=C(/C=C/c1ccccc1)c1ccccc1` [CHALCONE]: the inhibition in vivo at 40 mg/kg is 21.7%. The same measure, in the same setting: as for `COc1ccc(/C=C/C(=O)c2ccc(N3CCN(c4ccc(C)cc4C)CC3)cc2)cc1OC`, the figure is 48.5%; as for `O=C(/C=C/c1ccccc1)c1ccc(N2CCN(c3cccc(Cl)c3Cl)CC2)cc1`, 30.7%; as for `O=C(/C=C/c1ccccc1)c1ccc(N2CCN(c3ccccc3F)CC2)cc1`, 0.57%. Same read-out and setting: for `COc1ccc(S(=O)(=O)N2CCN(c3ccc(C(=O)/C=C/c4ccc(OC)c(OC)c4)cc3)CC2)cc1` the value was 64%; for `O=C(/C=C/c1ccccc1)c1ccc(N2CCN(S(=O)(=O)c3ccc4ccccc4c3)CC2)cc1`, 35%; for `COc1ccc(S(=O)(=O)N2CCN(c3ccc(C(=O)/C=C/c4ccccc4)cc3)CC2)cc1`, 45.2%. On the same count and under the same terms, as for `O=C(/C=C/c1ccccc1)c1ccc(N2CCN(c3ccc([N+](=O)[O-])cc3)CC2)cc1`, the figure is 55.4%; as for `O=C(/C=C/c1ccccc1)c1ccc(N2CCN(S(=O)(=O)c3ccc(Br)cc3)CC2)cc1`, 47.4%; as for `COc1ccc(N2CCN(c3ccc(C(=O)/C=C/c4ccc(Cl)cc4)cc3)CC2)cc1`, 55.1%.

Turning to `O=C(/C=C/c1ccccc1)c1ccc(N2CCN(S(=O)(=O)c3ccc(Cl)cc3)CC2)cc1`, the inhibition in vivo at 40 mg/kg worked out at 46.8%. Same read-out and setting: for `Cc1ccc(N2CCN(c3ccc(C(=O)/C=C/c4ccccc4)cc3)CC2)c(C)c1` the value was 15%; for `O=C(/C=C/c1ccccc1)c1ccc(N2CCN(c3ccc(Cl)c(Cl)c3)CC2)cc1`, 13.4%.

For the next data set, the system named is Mus musculus. The data set is described as follows: Anti-inflammatory activity in para-xylene-induced Kunming mouse ear-swelling model assessed as inhibition of ear swelling at 100 mg/kg, ig measured after 1 hr relative to control. The format is functional. The settings on record: po.
Take `CC(=O)Oc1ccccc1C(=O)O` [ASPIRIN]: the inhibition in vivo at 100 mg/kg was 64.9%.

A further data set relates to RAW264.7. As to the kind of experiment: Anti-inflammatory activity in mouse RAW264.7 cells assessed as inhibition of LPS-induced TNF-alpha production pretreated for 2 hrs followed by LPS challenge measured after 22 hrs by ELISA. The format is functional, cell-based.
Settings: not given
In general terms: An ELISA detects its analyte on a solid surface through an enzyme-linked reagent.
`COc1ccc(/C=C/C(=O)c2ccc(N3CCN(S(=O)(=O)c4ccc(Br)cc4)CC3)cc2)cc1OC`: the inhibition entry was “Dose-dependent effect”.

The next data set concerns RAW264.7. The data set is described as follows: Cytotoxicity against mouse RAW264.7 cells at < 50 uM by MTT assay. It counts as cell-based.
Settings: not given
A general note: Formazan colour is commonly taken as a measure of viable cells.
Turning to `COc1ccc(/C=C/C(=O)c2ccc(N3CCN(S(=O)(=O)c4ccc(Br)cc4)CC3)cc2)cc1OC`, the Activity entry is recorded as “Non-Toxic”.

The next data set deals with RAW264.7. The data set is described as follows: Anti-inflammatory activity in mouse RAW264.7 cells assessed as inhibition of LPS-induced IL-6 production pretreated for 2 hrs followed by LPS challenge measured after 22 hrs by ELISA. The format is functional, cell-based.
Settings: not given
In the case of `COc1ccc(/C=C/C(=O)c2ccc(N3CCN(S(=O)(=O)c4ccc(Br)cc4)CC3)cc2)cc1OC`, the inhibition entry was “Dose-dependent effect”.

For a further data set, the system named is Mus musculus. As to the kind of experiment: Anti-inflammatory activity in para-xylene-induced Kunming mouse ear-swelling model assessed as inhibition of ear swelling at 5 mg/kg, ig measured after 1 hr relative to control. The note with it: po. It counts as functional.
`Cc1ccc(-c2cc(C(F)(F)F)nn2-c2ccc(S(N)(=O)=O)cc2)cc1` [CELECOXIB]: the inhibition in vivo at 5 mg/kg was found to be 77%.
